Laboratory results as given in the supplement of paper PMC10307832.

How the values were obtained:
Assay in all cases: relative viability (nuclei count vs DMSO), 5 days (fraction); higher = more cells survive
Serdemetan + Palbociclib = compound: c1ccc2c(CCNc3ccc(Nc4ccncc4)cc3)c[nH]c2c1 [Serdemetan] + CC(=O)c1c(C)c2cnc(Nc3ccc(N4CCNCC4)cn3)nc2n(C2CCCC2)c1=O [Palbociclib] (partner 0.5 µM)
In short: (§1)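 Lung cancer cell lines in 1536-well plates got either a single drug or a fixed anchor-drug dose together with five library-drug doses (not always all listed) in √10 steps, by pin tool, on the day after seeding. Nuclei were counted after 5 days, and relative viability is the treated-to-vehicle ratio of nuclei counts. Values are medians of duplicate plates.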

Serdemetan + Olaparib = compound: c1ccc2c(CCNc3ccc(Nc4ccncc4)cc3)c[nH]c2c1 [Serdemetan] + O=C(c1cc(Cc2n[nH]c(=O)c3ccccc23)ccc1F)N1CCN(C(=O)C2CC2)CC1 [Olaparib] (partner 8 µM)
In short: as §1

Serdemetan + Lapatinib = compound: c1ccc2c(CCNc3ccc(Nc4ccncc4)cc3)c[nH]c2c1 [Serdemetan] + CS(=O)(=O)CCNCc1ccc(-c2ccc3ncnc(Nc4ccc(OCc5cccc(F)c5)c(Cl)c4)c3c2)o1 [Lapatinib] (partner 2 µM)
In short: as §1

Selisistat + Tozasertib = compound: C1CC(C2=C(C1)C3=C(N2)C=CC(=C3)Cl)C(=O)N [Selisistat] + Cc1cc(Nc2cc(N3CCN(C)CC3)nc(Sc3ccc(NC(=O)C4CC4)cc3)n2)n[nH]1 [Tozasertib] (partner 0.1 µM)
In short: as §1

Cell Line: UMC-11
- relative viability (Serdemetan + Palbociclib; first compound 0.04 µM): 0.333
- relative viability (Serdemetan + Palbociclib; first compound 0.1265 µM): 0.343
- relative viability (Serdemetan + Palbociclib; first compound 0.4 µM): 0.381
- relative viability (Serdemetan + Palbociclib; first compound 1.265 µM): 0.344
- relative viability (Serdemetan + Palbociclib; first compound 4 µM): 0.281
- relative viability (Serdemetan + Olaparib; first compound 0.04 µM): 0.345
- relative viability (Serdemetan + Olaparib; first compound 0.1265 µM): 0.332
- relative viability (Serdemetan + Olaparib; first compound 0.4 µM): 0.319
- relative viability (Serdemetan + Olaparib; first compound 1.265 µM): 0.255
- relative viability (Serdemetan + Olaparib; first compound 4 µM): 0.593
- relative viability (Serdemetan + Lapatinib; first compound 0.04 µM): 0.953
- relative viability (Serdemetan + Lapatinib; first compound 0.1265 µM): 0.915
- relative viability (Serdemetan + Lapatinib; first compound 0.4 µM): 1.03
- relative viability (Serdemetan + Lapatinib; first compound 1.265 µM): 0.703
- relative viability (Serdemetan + Lapatinib; first compound 4 µM): 0.886
- relative viability (Selisistat + Tozasertib; first compound 0.4 µM): 0.212
- relative viability (Selisistat + Tozasertib; first compound 1.265 µM): 0.21
- relative viability (Selisistat + Tozasertib; first compound 4 µM): 0.209
- relative viability (Selisistat + Tozasertib; first compound 12.65 µM): 0.205
- relative viability (Selisistat + Tozasertib; first compound 40 µM): 0.212
